From patent publication US4386094A, “4-Lower alkyl-3-phenoxypyridine-1-oxide and a method for its production” (priority 1980, dated 1983)
Where two headings read alike, the source gives them in different places.

What was measured:
[1] = system: Pentylenetetrazol (Metrazol) seizure; assay: sc Met--Subcutaneous Pentylenetetrazol (Metrazol) Seizure Threshold Test, rats; type: in vivo; conditions: oral
Procedure: (§1) The utility of the aforementioned compound as an anticonvulsant is determined by generating a compound profile using three tests. The tests employed are described in Epilepsia 19 (1978) 409-428 which is incorporated by reference.
(§2) The animal is observed for 30 minutes. Failure to observe even a threshold seizure (a single episode of clonic spasms of at least 5 sec duration) is defined as protection and the results are expressed as: […]
(§3) number of animals protected/number of animals tested.

[2] = system: Pentylenetetrazol (Metrazol) seizure; assay: sc Met--Subcutaneous Pentylenetetrazol (Metrazol) Seizure Threshold Test, mice; type: in vivo, male Carworth Farms No. 1 mice; conditions: for ED50 sc Met: intraperitoneal
Procedure: as §1
The tests were performed by the National Institute of Neurological and Communicative Disorders and Stroke and used male Carworth Farms No. 1 mice. The compounds are employed at at least 3 dose levels (30, 100, 300 mg/kg) in the following three tests.
sc Met--Subcutaneous Pentylenetetrazol (Metrazol®) Seizure Threshold Test
as §2, §3

Picrotoxin = Picrotoxin test, mice; type: in vivo; conditions: intraperitoneal
Bicuculline = Bicuculline test, mice; type: in vivo
Strychnine = Strychnine test, mice; type: in vivo; conditions: intraperitoneal
[3] = system: Maximal electroshock seizures; assay: MES--Maximal Electroshock Seizure Test, rats; type: in vivo; conditions: Rattus norvegicus, oral
Procedure: The utility of the aforementioned compound as an anticonvulsant is determined by generating a compound profile using three tests. The tests employed are described in Epilepsia 19 (1978) 409-428 which is incorporated by reference. Maximal electroshock seizures are elicited with a 60 cycle alternating current of 50 mA intensity (5-7 times that necessary to elicit minimal electroshock seizures) delivered for 0.2 sec via corneal electrodes. A drop of 0.9% saline is instilled in the eye prior to application of the electrodes in order to […]. Abolition of the hind limb tonic extension component of the seizure is defined as protection and results are expressed as: number of animals protected/number of animals tested.

[4] = Rotorod toxicity test (Tox), mice; type: in vivo, male Carworth Farms No. 1 mice
Procedure: The Rotorod test is used to evaluate neurotoxicity. The animal is placed on a 1 inch diameter knurled plastic rod rotating at 6 rpm. Normal mice can remain on a rod rotating at this speed indefinitely. Neurologic toxicity is defined as the failure of the animal to remain on the rod for 1 minute, and is expressed as:

[5] = system: Maximal electroshock seizures; assay: MES--Maximal Electroshock Seizure Test, mice; type: in vivo, male Carworth Farms No. 1 mice; conditions: Mus musculus
From the text: Maximal electroshock seizures are elicited with a 60 cycle alternating current of 50 mA intensity (5-7 times that necessary to elicit minimal electroshock seizures) delivered for 0.2 sec via corneal electrodes. A drop of 0.9% saline is instilled in the eye prior to application of the electrodes in order to prevent the death of the animal. Abolition of the hind limb tonic extension component of the seizure is defined as protection and results are expressed as:

[6] = Rotorod toxicity test (Tox), rats; type: in vivo; conditions: for TD50: rat, in vivo, po
[7] = mouse, in vivo, po; cited from earlier work
[8] = rat, in vivo, po; cited from earlier work

| Structure (SMILES) | sc Met-ED50 [1] | ED50 sc Met [2] | sc Met-ED50 ([2]; oral) | ED50 Picrotoxin (Picrotoxin) | ED50 Bicuculline (Bicuculline; intraperitoneal, mice) | ED50 [3] [mg/kg] | ED50 ([5]; oral, read-out: MES-ED50) [mg/kg] | TD50 [6] [mg/kg] | other results |
| --- | --- | --- | --- | --- | --- | --- | --- | --- | --- |
| Cc1cc[n+]([O-])cc1Oc1ccccc1 [4-METHYL-3-PHENOXYPYRIDINE-1-OXIDE, 4-methyl-3-phenoxypyridine-1-oxide] | Potentiates | Potentiates | Potentiates | Potentiates | Potentiates | 11.2 | 85.3 | 76.1 | ED50 Strychnine (Strychnine): Ineffective; TD50 ([4]; mouse, in vivo, ip): 76.2 mg/kg; TD50 ([4]; mouse, in vivo, po): 296 mg/kg; ED50 ([5]; ip, intraperitoneal, read-out: ED50 MES): 23.2 mg/kg |
| NC(=O)N1c2ccccc2C=Cc2ccccc21 [CARBAMAZEPINE] | Variable | Potentiates |  |  |  | 8.5 |  |  | Max. Prot. (Bicuculline) (Bicuculline; intraperitoneal, mice, at 50-130 mg/kg): 62.5%; ROTOROD TD50 ([6]; oral, rats): 813.06 mg/kg |
| CCC1(c2ccccc2)NC(=O)N(C)C1=O (stereo not drawn) [MEPHENYTOIN] |  |  |  |  |  | 10 | 37 |  | ED50 ([1]; Rattus norvegicus): 105 mg/kg; ED50 ([2]; Mus musculus, oral): 53 mg/kg; ED50 (Bicuculline; Mus musculus, ip, read-out: ED50 Bicuculline): 124 mg/kg; ROTOROD TD50 [7]: 97.0 mg/kg; Max. Prot. (Strychnine) (Strychnine; at 70-150 mg/kg): 50%; ROTOROD TD50 [8]: 143 mg/kg; TD50 ([4]; intraperitoneal, mice): 153.82 mg/kg |
| O=C1NC(=O)C(c2ccccc2)(c2ccccc2)N1 [PHENYTOIN] | Ineffective | Potentiates | Ineffective | Potentiates | Potentiates |  |  | > 3000 | Max. Prot. (Strychnine) (Strychnine; at 55-100 mg/kg): 50% |
